# According to US20220202322A1, “DRUG RELEASE COMPOSITIONS AND METHODS FOR DELIVERY” (ABBOTT DIABETES CARE INC., priority 2020, published 2022):
# Assay: physchem
# Assay type: physicochemical
# Conditions: water
# Description: Conjugating dexamethasone to a water-soluble polymer makes dexamethasone water soluble, which allows for more consistent dispensing. […] As further shown in FIG. 22D, dispensing of the solution of 18 without a crosslinking agent (left panel) and with a crosslinking agent (right panel) was consistent and performed without difficulty.
smiles,measurement,value
C[C@@H]1C[C@H]2[C@@H]3CCC4=CC(=O)C=C[C@]4(C)[C@@]3(F)[C@@H](O)C[C@]2(C)[C@@]1(O)C(=O)CO [dexamethasone],solubility,50 µg/mL
